Assay results taken from ChEMBL document CHEMBL4340517, “Synthesis and biological evaluation of 7-substituted cycloberberine derivatives as potent antibacterial agents against MRSA” (2019).
Converted amounts (≈) assume the structure as drawn.

Legend:
Assay type in all cases: functional
Staphylococcus aureus [1] = assay: Antibacterial activity against methicillin-sensitive Staphylococcus aureus ATCC 29213 after 18 hrs by agar dilution method; conditions: ATCC 29213, 18 h
Staphylococcus aureus [2] = assay: Antibacterial activity against methicillin-resistant Staphylococcus aureus ATCC 33591 after 18 hrs by agar dilution method; conditions: ATCC 33591, 18 h
Staphylococcus aureus [3] = assay: Antibacterial activity against VAN-intermediate Staphylococcus aureus ATCC 700698 after 18 hrs by agar dilution method; conditions: ATCC 700698, 18 h
[4] = system: Staphylococcus epidermidis; assay: Antibacterial activity against methicillin-resistant Staphylococcus epidermidis 13-3 after 18 hrs by agar dilution method; conditions: 13-3, 18 h
Enterococcus faecalis [5] = assay: Antibacterial activity against VAN-sensitive Enterococcus faecalis ATCC 29212 after 18 hrs by agar dilution method; conditions: ATCC 29212, 18 h
Enterococcus faecalis [6] = assay: Antibacterial activity against VAN-resistant Enterococcus faecalis ATCC 51299 after 18 hrs by agar dilution method; conditions: ATCC 51299, 18 h
Enterococcus faecium = assay: Antibacterial activity against VAN-resistant Enterococcus faecium ATCC 700221 after 18 hrs by agar dilution method; conditions: ATCC 700221, 18 h

Row | Compound | MIC (Staphylococcus aureus [1]) | MIC (Staphylococcus aureus [2]) | MIC (Staphylococcus aureus [3]) | MIC [4] | MIC (Enterococcus faecalis [5]) | MIC (Enterococcus faecalis [6]) | MIC (Enterococcus faecium)
1 | CCCc1cc2c3ccc(OC)c(OC)c3c(-c3ccccc3)[n+]3c2c2c(cc4c(c12)OCO4)CC3.[Br-] | 2 µg/mL | 2 µg/mL | 32 µg/mL | 2 µg/mL | 8 µg/mL | 16 µg/mL | > 128 µg/mL
2 | CCOc1c(OC)ccc2c1c(-c1ccccc1)[n+]1c3c2ccc2c4c(cc(c23)CC1)OCO4.[Br-] | 1 µg/mL | 8 µg/mL | 32 µg/mL | 1 µg/mL | 4 µg/mL | 4 µg/mL | 2 µg/mL
3 | CCc1cc2c3ccc(OC)c(OC)c3c(-c3ccccc3)[n+]3c2c2c(cc4c(c12)OCO4)CC3.[Br-] | 1 µg/mL | 8 µg/mL | 32 µg/mL | 1 µg/mL | 4 µg/mL | 4 µg/mL | 1 µg/mL
4 | COc1ccc2c(c1OC)c(-c1ccc3c(c1)OCO3)[n+]1c3c2ccc2c4c(cc(c23)CC1)OCO4.[Br-] | 16 µg/mL | 16 µg/mL | 32 µg/mL | 2 µg/mL | 8 µg/mL | 8 µg/mL | 8 µg/mL
5 | CCc1cc2c3ccc(OC)c(OC)c3c[n+]3c2c2c(cc4c(c12)OCO4)CC3.[Cl-] | 2 µg/mL | 4 µg/mL | 16 µg/mL | 1 µg/mL | 8 µg/mL | 8 µg/mL | 32 µg/mL
6 | CN[C@H](CC(C)C)C(=O)N[C@H]1C(=O)N[C@@H](CC(N)=O)C(=O)N[C@H]2C(=O)N[C@H]3C(=O)N[C@H](C(=O)N[C@H](C(=O)O)c4cc(O)cc(O)c4-c4cc3ccc4O)[C@H](O)c3ccc(c(Cl)c3)Oc3cc2cc(c3O[C@@H]2O[C@H](CO)[C@@H](O)[C@H](O)[C@H]2O[C@H]2C[C@](C)(N)[C@H](O)[C@H](C)O2)Oc2ccc(cc2Cl)[C@H]1O [VANCOMYCIN] |  |  | 8 µg/mL (≈ 5.52 µM) |  | 2 µg/mL (≈ 1.38 µM) | 32 µg/mL (≈ 22.1 µM) | 64 µg/mL (≈ 44.2 µM)
7 | C=Cc1c2c(OC)c(OC)ccc2c2ccc3c4c(cc5c3c2[n+]1CC5)OCO4.[Br-] | 4 µg/mL | 8 µg/mL | 8 µg/mL | 2 µg/mL | 4 µg/mL | 4 µg/mL | 4 µg/mL
8 | COc1cc2c3c(ccc4c5ccc(OC)c(OC)c5c(-c5ccc(Cl)cc5)[n+](c43)CC2)c1OC.[Br-] | 2 µg/mL | 8 µg/mL | 16 µg/mL | 2 µg/mL | 16 µg/mL | 8 µg/mL | > 128 µg/mL
9 | CCc1cc2c3ccc(OC)c(OC)c3c(-c3ccc(Cl)cc3)[n+]3c2c2c(cc4c(c12)OCO4)CC3.[Br-] | 1 µg/mL | 2 µg/mL | 32 µg/mL | 1 µg/mL | 4 µg/mL | 4 µg/mL | 1 µg/mL
10 | CCCc1cc2c3ccc(OC)c(OC)c3c[n+]3c2c2c(cc4c(c12)OCO4)CC3.[Cl-] | 2 µg/mL | 16 µg/mL | 8 µg/mL | 4 µg/mL | 8 µg/mL | 8 µg/mL | 8 µg/mL
11 | COc1ccc2c(c1OC)c(-c1ccc(F)cc1)[n+]1c3c2ccc2c4c(cc(c23)CC1)OCO4.[Br-] | 8 µg/mL | 8 µg/mL | 16 µg/mL | 4 µg/mL | 16 µg/mL | 16 µg/mL | > 128 µg/mL
12 | CCCCc1cc2c3ccc(OC)c(OC)c3c[n+]3c2c2c(cc4c(c12)OCO4)CC3.[Cl-] | 4 µg/mL | 4 µg/mL | 16 µg/mL | 32 µg/mL | 16 µg/mL | 32 µg/mL | 16 µg/mL
13 | COc1ccc2c(c1OC)c(CC(C)C)[n+]1c3c2ccc2c4c(cc(c23)CC1)OCO4.[Br-] | 4 µg/mL | 16 µg/mL | 16 µg/mL | 4 µg/mL | 16 µg/mL | 16 µg/mL | 16 µg/mL
